Each compound was assayed on HCT116 cells (assay: In vitro cytotoxicity measured by the cell colony formation assay). Conditions: HCT116 cells, 72 h drug incubation, colonies counted after 7 days; ID50 = drug concentration producing 50% inhibition of colony formation; read-out: IN VITRO ID 50 (nm) HCT116.
Assay type: cell-based
In short: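 Colony-forming survival was scored 7 days after a 72 h, 37 °C compound exposure followed by washout into fresh medium.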
`C/C=C/C(=O)N[C@@H](c1ccco1)[C@@H](O)C(=O)O[C@H]1C[C@@]2(O)[C@@H](OC(=O)c3ccccc3)C3[C@](C)(C(=O)[C@H](O)C(=C1C)C2(C)C)[C@@H](OC(=O)NCC)C[C@H]1OC[C@@]31OC(C)=O` (stereo partly drawn) [Compound 5822] gave an IC50 of under 10 nM.
`CC(=O)O[C@@]12CO[C@@H]1C[C@H](OC(=O)Nc1ccc(F)c(F)c1)[C@@]1(C)C(=O)[C@H](O)C3=C(C)[C@@H](OC(=O)[C@H](O)[C@@H](NC(=O)C=C(C)C)c4ccco4)C[C@@](O)([C@@H](OC(=O)c4ccccc4)C12)C3(C)C` (stereo partly drawn) [Compound 5522] showed an IC50 of under 1 nM.
`CCNC(=O)O[C@H]1C[C@H]2OC[C@@]2(OC(C)=O)C2[C@H](OC(=O)c3ccccc3)[C@]3(O)C[C@H](OC(=O)[C@H](O)[C@@H](NC(=O)OC(C)(C)C)c4ccco4)C(C)=C([C@@H](O)C(=O)[C@@]21C)C3(C)C` (stereo partly drawn) [Compound 5393] was tested, and the IC50 was under 1 nM.

Same assay, conditions: HCT116 cells, 72 h incubation with drug, colonies counted after 7 days; ID50 = drug concentration producing 50% inhibition of colony formation; read-out: IN VITRO ID 50 (nm) HCT116
`COC(=O)O[C@H]1C[C@H]2OC[C@@]2(OC(C)=O)C2[C@H](OC(=O)c3ccccc3)[C@]3(O)C[C@H](OC(=O)[C@H](O)[C@@H](NC(=O)OC(C)(C)C)C4CC4)C(C)=C([C@@H](O)C(=O)[C@@]21C)C3(C)C` (stereo partly drawn) [Compound 4566] gave an IC50 of under 1 nM.
`CCOC(=O)O[C@H]1C(=O)[C@@]2(C)C([C@H](OC(=O)c3ccccc3)[C@]3(O)C[C@H](OC(=O)[C@H](O)[C@@H](NC(=O)OC(C)(C)C)c4ccoc4)C(C)=C1C3(C)C)[C@]1(OC(C)=O)CO[C@@H]1C[C@@H]2O` (stereo partly drawn) [Compound 1838] was tested, and the IC50 was under 1 nM.
In the case of `CCOC(=O)O[C@H]1C(=O)[C@@]2(C)C([C@H](OC(=O)c3ccccc3)[C@]3(O)C[C@H](OC(=O)[C@H](O)[C@@H](NC(=O)C(C)C)c4ccco4)C(C)=C1C3(C)C)[C@]1(OC(C)=O)CO[C@@H]1C[C@@H]2O` (stereo partly drawn) [Compound 6466], the IC50 is reported as under 10 nM.
`CCOC(=O)O[C@H]1C(=O)[C@@]2(C)C([C@H](OC(=O)c3ccccc3)[C@]3(O)C[C@H](OC(=O)[C@H](O)[C@H](C=C(C)C)NC(=O)OC(C)(C)C)C(C)=C1C3(C)C)[C@]1(OC(C)=O)CO[C@@H]1C[C@@H]2O` (stereo partly drawn) [Compound 1788] was tested, and the IC50 was under 1 nM.
`COC(=O)O[C@H]1C[C@H]2OC[C@@]2(OC(C)=O)C2[C@H](OC(=O)c3ccccc3)[C@]3(O)C[C@H](OC(=O)[C@H](O)[C@@H](NC(=O)OCC(C)C)c4ccco4)C(C)=C([C@@H](O)C(=O)[C@@]21C)C3(C)C` (stereo partly drawn) [Compound 4656] was tested, and the IC50 was under 1 nM.
Compound `CCOC(=O)O[C@H]1C(=O)[C@@]2(C)C([C@H](OC(=O)c3ccccc3)[C@]3(O)C[C@H](OC(=O)[C@H](O)[C@@H](NC(=O)c4cccs4)c4ccco4)C(C)=C1C3(C)C)[C@]1(OC(C)=O)CO[C@@H]1C[C@@H]2O` (stereo partly drawn) [Compound 4088] has an IC50 of under 10 nM.
`CCOC(=O)O[C@H]1C[C@H]2OC[C@@]2(OC(C)=O)C2[C@H](OC(=O)c3ccccc3)[C@]3(O)C[C@H](OC(=O)[C@H](O)[C@@H](NC(=O)C=C(C)C)c4ccco4)C(C)=C([C@@H](O)C(=O)[C@@]21C)C3(C)C` (stereo partly drawn) [Compound 6151] showed an IC50 of under 1 nM.

Same assay, conditions: HCT116 cells, colony formation, 72 h incubation with drug, colonies counted after 7 days; ID50 = drug concentration producing 50% inhibition of colony formation; read-out: IN VITRO ID 50 (nm) HCT116
`C/C=C/C(=O)N[C@@H](c1ccco1)[C@@H](O)C(=O)O[C@H]1C[C@@]2(O)[C@@H](OC(=O)c3ccccc3)C3[C@](C)(C(=O)[C@H](OC(=O)Nc4ccc(F)c(F)c4)C(=C1C)C2(C)C)[C@@H](O)C[C@H]1OC[C@@]31OC(C)=O` (stereo partly drawn) [Compound 6015] gave an IC50 of under 10 nM.

Same assay, conditions: HCT116 colony formation; 72 h drug incubation, colonies counted after 7 days; Example 5, C-7 ester/C-10 hydroxy taxanes; read-out: IN VITRO ID 50 (nm) HCT116
With `CCCC(=O)O[C@H]1C[C@H]2OC[C@@]2(OC(C)=O)C2[C@H](OC(=O)c3ccccc3)[C@]3(O)C[C@H](OC(=O)[C@H](O)[C@@H](NC(=O)OC(C)C)c4cccs4)C(C)=C([C@@H](O)C(=O)[C@@]21C)C3(C)C` (stereo partly drawn) [Compound 4135] the IC50 was under 1 nM.
`CC(=O)O[C@@]12CO[C@@H]1C[C@H](OC(=O)C(C)C)[C@@]1(C)C(=O)[C@H](O)C3=C(C)[C@@H](OC(=O)[C@H](O)[C@@H](NC(=O)OC=C(C)C)c4ccco4)C[C@@](O)([C@@H](OC(=O)c4ccccc4)C12)C3(C)C` (stereo partly drawn) [Compound 5989] showed an IC50 of under 10 nM.
With `CCC(=O)O[C@H]1C[C@H]2OC[C@@]2(OC(C)=O)C2[C@H](OC(=O)c3ccccc3)[C@]3(O)C[C@H](OC(=O)[C@H](O)[C@@H](NC(=O)c4ccco4)c4ccco4)C(C)=C([C@@H](O)C(=O)[C@@]21C)C3(C)C` (stereo partly drawn) [Compound 3629] the IC50 was under 1 nM.
With `C/C=C/C(=O)O[C@H]1C[C@H]2OC[C@@]2(OC(C)=O)C2[C@H](OC(=O)c3ccccc3)[C@]3(O)C[C@H](OC(=O)[C@H](O)[C@@H](NC(=O)OC(C)(C)C)c4cccs4)C(C)=C([C@@H](O)C(=O)[C@@]21C)C3(C)C` (stereo partly drawn) [Compound 6686] the IC50 was under 1 nM.
In the case of `CCCC(=O)O[C@H]1C[C@H]2OC[C@@]2(OC(C)=O)C2[C@H](OC(=O)c3ccccc3)[C@]3(O)C[C@H](OC(=O)[C@H](O)[C@@H](NC(=O)OC(C)(C)CC)c4ccco4)C(C)=C([C@@H](O)C(=O)[C@@]21C)C3(C)C` (stereo partly drawn) [Compound 6272], the IC50 is reported as under 1 nM.
Work on `CCCC(=O)O[C@H]1C[C@H]2OC[C@@]2(OC(C)=O)C2[C@H](OC(=O)c3ccccc3)[C@]3(O)C[C@H](OC(=O)[C@H](O)[C@H](C=C(C)C)NC(=O)OC(C)(C)C)C(C)=C([C@@H](O)C(=O)[C@@]21C)C3(C)C` (stereo partly drawn) [Compound 4406] yielded an IC50 of under 1 nM.
For `C/C=C/C(=O)N[C@@H](c1ccoc1)[C@@H](O)C(=O)O[C@H]1C[C@@]2(O)[C@@H](OC(=O)c3ccccc3)C3[C@](C)(C(=O)[C@H](O)C(=C1C)C2(C)C)[C@@H](OC(=O)CCC)C[C@H]1OC[C@@]31OC(C)=O` (stereo partly drawn) [Compound 4939], the IC50 was under 1 nM.

Same assay, conditions: HCT116 colony formation; 72 h drug incubation, colonies counted after 7 days; Example 10, C-10 ester/C-7 hydroxy taxanes; read-out: IN VITRO ID 50 (nm) HCT116
Compound `CCC(=O)O[C@H]1C(=O)[C@@]2(C)C([C@H](OC(=O)c3ccccc3)[C@]3(O)C[C@H](OC(=O)[C@H](O)[C@@H](NC(=O)OCC(C)C)c4ccsc4)C(C)=C1C3(C)C)[C@]1(OC(C)=O)CO[C@@H]1C[C@@H]2O` (stereo partly drawn) [Compound 4711] has an IC50 of under 10 nM.
With `CCOC(=O)N[C@@H](c1ccco1)[C@@H](O)C(=O)O[C@H]1C[C@@]2(O)[C@@H](OC(=O)c3ccccc3)C3[C@](C)(C(=O)[C@H](OC(=O)C4CC4)C(=C1C)C2(C)C)[C@@H](O)C[C@H]1OC[C@@]31OC(C)=O` (stereo partly drawn) [Compound 3677] the IC50 was under 1 nM.
`CCCC(=O)O[C@H]1C(=O)[C@@]2(C)C([C@H](OC(=O)c3ccccc3)[C@]3(O)C[C@H](OC(=O)[C@H](O)[C@@H](NC(=O)OC(C)(C)C)c4cccs4)C(C)=C1C3(C)C)[C@]1(OC(C)=O)CO[C@@H]1C[C@@H]2O` (stereo partly drawn) [Compound 1003] gave an IC50 of under 1 nM.
In the case of `C/C=C/C(=O)O[C@H]1C(=O)[C@@]2(C)C([C@H](OC(=O)c3ccccc3)[C@]3(O)C[C@H](OC(=O)[C@H](O)[C@@H](NC(=O)OC(C)(C)C)c4ccccn4)C(C)=C1C3(C)C)[C@]1(OC(C)=O)CO[C@@H]1C[C@@H]2O` (stereo partly drawn) [Compound 2348], the IC50 is reported as under 1 nM.
With `CC(=O)OC12COC1CC(O)C1(C)C(=O)C(OC(=O)c3cccs3)C3=C(C)C(OC(=O)C(O)C(NC(=O)OC(C)(C)C)C(C)C)CC(O)(C(OC(=O)c4ccccc4)C21)C3(C)C` (stereo not drawn) [Compound 1964] the IC50 was under 10 nM.
`CC(=O)O[C@@]12CO[C@@H]1C[C@H](O)[C@@]1(C)C(=O)[C@H](OC(=O)C(C)C)C3=C(C)[C@@H](OC(=O)[C@H](O)[C@@H](NC(=O)OC(C)(C)C)C4CCC4)C[C@@](O)([C@@H](OC(=O)c4ccccc4)C12)C3(C)C` (stereo partly drawn) [Compound 2319] was tested, and the IC50 was under 10 nM.
With `CCC(=O)O[C@H]1C(=O)[C@@]2(C)C([C@H](OC(=O)c3ccccc3)[C@]3(O)C[C@H](OC(=O)[C@H](O)[C@@H](NC(=O)OC(C)(C)C)c4ccccn4)C(C)=C1C3(C)C)[C@]1(OC(C)=O)CO[C@@H]1C[C@@H]2O` (stereo partly drawn) [Compound 0503] the IC50 was under 1 nM.
Compound `CCC(=O)O[C@H]1C(=O)[C@@]2(C)C([C@H](OC(=O)c3ccccc3)[C@]3(O)C[C@H](OC(=O)[C@H](O)[C@@H](NC(=O)c4cccs4)c4ccco4)C(C)=C1C3(C)C)[C@]1(OC(C)=O)CO[C@@H]1C[C@@H]2O` (stereo partly drawn) [Compound 3644] has an IC50 of under 1 nM.
For `CCC(=O)O[C@H]1C(=O)[C@@]2(C)C([C@H](OC(=O)c3ccccc3)[C@]3(O)C[C@H](OC(=O)[C@H](O)[C@@H](NC(=O)c4ccccc4)c4cccnc4)C(C)=C1C3(C)C)[C@]1(OC(C)=O)CO[C@@H]1C[C@@H]2O` (stereo partly drawn) [Compound 0647], the IC50 was 12 nM.
With `CCC(=O)O[C@H]1C(=O)[C@@]2(C)C([C@H](OC(=O)c3ccccc3)[C@]3(O)C[C@H](OC(=O)[C@H](O)[C@@H](NC(=O)OC(C)(C)CC)c4ccco4)C(C)=C1C3(C)C)[C@]1(OC(C)=O)CO[C@@H]1C[C@@H]2O` (stereo partly drawn) [Compound 6522] the IC50 was under 1 nM.
For `CC(=O)O[C@@]12CO[C@@H]1C[C@H](O)[C@@]1(C)C(=O)[C@H](OC(=O)C3CC3)C3=C(C)[C@@H](OC(=O)[C@H](O)[C@@H](NC(=O)c4ccccc4)c4ccc([N+](=O)[O-])cc4)C[C@@](O)([C@@H](OC(=O)c4ccccc4)C12)C3(C)C` (stereo partly drawn) [Compound 2869], the IC50 was under 10 nM.
For `CC(=O)OC12COC1CC(O)C1(C)C(=O)C(OC(=O)c3ccco3)C3=C(C)C(OC(=O)C(O)C(NC(=O)OC(C)(C)C)c4ccco4)CC(O)(C(OC(=O)c4ccccc4)C21)C3(C)C` (stereo not drawn) [Compound 2142], the IC50 was under 1 nM.
Compound `CC(=O)OC12COC1CC(O)C1(C)C(=O)C(OC(=O)c3ccco3)C3=C(C)C(OC(=O)C(O)C(NC(=O)OC(C)(C)C)c4ccncc4)CC(O)(C(OC(=O)c4ccccc4)C21)C3(C)C` (stereo not drawn) [Compound 2132] has an IC50 of under 1 nM.

Same assay, conditions: HCT116 colony formation; 72 h drug incubation, colonies counted after 7 days; Example 15, C-7 substituted acetate/C-10 hydroxy taxanes; read-out: IN VITRO ID 50 (nm) HCT116
In the case of `C/C=C/C(=O)N[C@@H](c1ccco1)[C@@H](O)C(=O)O[C@H]1C[C@@]2(O)[C@@H](OC(=O)c3ccccc3)C3[C@](C)(C(=O)[C@H](O)C(=C1C)C2(C)C)[C@@H](OC(=O)COc1ccccc1)C[C@H]1OC[C@@]31OC(C)=O` (stereo partly drawn) [Compound 5811], the IC50 is reported as under 1 nM.
With `CSCC(=O)O[C@H]1C[C@H]2OC[C@@]2(OC(C)=O)C2[C@H](OC(=O)c3ccccc3)[C@]3(O)C[C@H](OC(=O)[C@H](O)[C@@H](NC(=O)OC(C)(C)C)c4ccco4)C(C)=C([C@@H](O)C(=O)[C@@]21C)C3(C)C` (stereo partly drawn) [Compound 5600] the IC50 was under 1 nM.

Reference: patent publication US6638973B2, “Taxane formulations” (FSU Research Foundation, Inc., priority 2000, dated 2003)
